Laboratory results as given in patent US7166581B1, “Treatment of chemotherapeutic agent and antiviral agent toxicity with acylated pyrimidine nucleosides” (Wellstat Therapeutics Corporation, priority 1987, dated 2007).

Legend:
[1] = tested on: hematopoietic system (5-FU toxicity); assay: Oral TAU vs uridine rescue from 5-FU hematologic toxicity (Example 1); format: in vivo, female Balb/C mice
Method: Forty-five female Balb/C mice (20 grams each) were given 5-fluorouracil (150 mg/kg, i.p.) at 12:00 noon on the initial day of the experiment. These animals were then divided into 5 groups: control (water, p.o.), oral uridine at 400 mg/kg/dose, oral uridine at 800 mg/kg/dose, parenteral (i.p.) uridine at 400 mg/kg/dose, and oral TAU at 500 mg/kg/dose.
Two hours after administration of 5-FU, the rescue treatments with uridine or triacetyluridine were begun. Groups received their designated treatment at 2:00 p.m., 4:00 p.m., and 6:00 p.m. on the day of 5-FU administration, and at 9 a.m., 11:00 a.m., 1:00 p.m., 3:00 p.m. and 5:00 p.m. on the following day. Each dose of uridine or TAU was administered in 0.2 ml of water by gavage or in 0.2 ml of saline by i.p. injection, as appropriate.
Mice were sacrificed by cervical dislocation; femurs were removed, and their cell contents were expelled for counting; spleens were also removed and weighed. […]

[2] = tested on: hematopoietic system (5-FU toxicity); assay: Acyl derivatives of uridine i.p. vs bone marrow toxicity of 5-FU (Example 3); format: in vivo, female Balb/C mice; conditions: for HCT % / Lym / Neut / RBC / WBC: eleven days after 5-FU
Method: Ninety-eight female Balb/C mice weighing approximately 20 grams each were given a one-time 150 mg/kg injection (i.p.) of 5-FU at 1 p.m. on the initial day of the study. […] All of these doses are equimolar, and were administered in a volume of 0.4 ml by i.p. injection. The groups were treated at 3:30, 6:00, and 8:30 p.m. on the initial day with their respective agents. […] On days seven and eleven following 5-FU administration, blood (0.2–0.3 ml) was collected from seven mice in each group by retro-orbital bleeding into EDTA for subsequent differential blood cell counting. Mice were sacrificed by cervical dislocation; their right femurs removed and the contents expelled for cell counting; and their spleens removed and weighed.

in vivo = assay: in vivo; parameters: species or system mice; conditions: mouse, ip, 300 mg/kg
Method: Plasma uridine levels were determined in mice at various times (15 minutes, 30 minutes, 1 hour, and 2 hours) after administration of the acyl derivatives of uridine utilized in Example 3 for attenuation of toxicity caused by 5-FU. Groups of mice (n=3 per compound per time point) received intraperitoneal injections of uridine (300 mg/kg), triacetyluridine (TAU; 455 mg/kg/treatment), benzoyluridine (BU; 428 mg/kg/treatment), ethoxycarbonyluridine (ECU; 389 mg/kg/treatment), octanoyluridine (OU; 455 mg/kg/treatment), and valeryluridine (VU; 403 mg/kg/treatment). The doses of the acyl derivatives of uridine are the molar equivalent of 300 mg/kg uridine. At the appropriate time points, blood samples (200 μl) were taken from mice via the retro-orbital sinus and immediately centrifuged. 75 μl of the resulting plasma was deproteinized with 2 volumes of methanol followed by centrifugation. The supernatant was lyophilized and reconstituted with 50 mM potassium phosphate buffer, pH 6.0, and analyzed for uridine content by HPLC on a reverse phase (C18) column. Uridine was separated from other plasma components in 50 mM potassium phosphate buffer, pH 6.0, with a methanol gradient (2% to 35% over 15 minutes). Uridine was detected and quantified by UV absorbance at 260 nm.

[3] = tested on: CD8F1 spontaneous mammary adenocarcinoma; assay: TAU/uridine rescue with 5-FU alone in tumor-bearing mice (Example 5); format: in vivo
Method: Sixty CD8F1 (BALB/C×[…]) female mice with first generation transplants of CD8F1 spontaneous mammary adenocarcinoma were treated with a weekly chemotherapy regimen which included a single dose of 5-FU (150 mg/kg) followed by various rescue strategies. The average tumor size was 157 mg at the start of the chemotherapy. The weekly chemotherapy course was completed three times.
In order to evaluate the various rescue therapies, the animals were divided into six groups of ten animals each as follows: […]

[4] = tested on: CD8F1 spontaneous breast tumors; assay: TAU/uridine rescue with PALA-MTX-5-FU-LV combination chemotherapy in tumor-bearing mice (Example 6); format: in vivo, male CD8F1 mice; conditions: PALA-MTX-5-FU-LV weekly x3
Method: Forty male CD8F1 mice with transplanted CD8F1 spontaneous breast tumors (initial tumor weight of 155 mg) were treated weekly with the following regimen:
In order to evaluate and compare the efficacy of TAU and uridine, the mice were divided into four groups of ten animals each.
Saline, uridine, or TAU was administered every eight hours for a total of 5 treatments starting two hours after each weekly dose of 5-FU. This weekly regimen was repeated for three successive weeks. One week after the third course of chemotherapy regimen, mortality in each group was assessed and, where a sufficient number of animals survived, body weight and tumor weight were also measured.

[5] = 7 days after 5-FU 150 mg/kg i.p., oral, Urd 400 or equimolar TAU 500 mg/kg/dose
[6] = 7 days after 5-FU, Urd 400 mg/kg/dose i.p.
[7] = 7 days after 5-FU, Urd 800 mg/kg/dose oral
[8] = 7 days after 5-FU, oral, Urd 400 or equimolar TAU 500 mg/kg/dose
[9] = 11 days after 5-FU, Urd 400 mg/kg/dose i.p.
[10] = 11 days after 5-FU, Urd 800 mg/kg/dose oral
[11] = 11 days after 5-FU, oral, Urd 400 or equimolar TAU 500 mg/kg/dose
[12] = 5-FU 150 mg/kg i.p. weekly x3 + oral uridine 5,000 or equimolar TAU 7,582 mg/kg
[13] = 5-FU 150 mg/kg i.p. weekly x3 + uridine 3,500 mg/kg i.p.
[14] = oral uridine 4,000 or equimolar TAU 6,066 mg/kg every 8 h x5
[15] = day seven after 5-FU, TAU 455 mg/kg/treatment i.p.

With `O=c1ccn([C@@H]2O[C@H](CO)[C@@H](O)[C@H]2O)c(=O)[nH]1` [Urd, uridine] the WBC [1, 5] was 4.4 ± .5 K/μl, the Lymphocytes [1, 6] was 3.80 ± .30 K/μl and the Marrow cell counts [1, 6] was 5.0 ± .7 × 10^6 × 10^6/femur. The Neutrophils [1, 6] was 0.83 ± .24 K/μl, the Platelets [1, 6] was 773 K/μl and the RBC [1, 6] was 8.06 ± .05 M/μl. For the same compound, the Spleen weight [1, 6] was 78 ± 5.5 mg, the WBC [1, 6] was 4.6 ± .4 K/μl and the Lymphocytes [1, 7] was 3.76 ± .27 K/μl. For the same compound, the Marrow cell counts [1, 7] was 2.9 ± .9 × 10^6 × 10^6/femur, the Neutrophils [1, 7] was 0.88 ± .22 K/μl and the Platelets [1, 7] was 646 K/μl. The RBC [1, 7] was 8.24 ± .26 M/μl, the Spleen weight [1, 7] was 74 ± 6.4 mg and the WBC [1, 7] was 4.6 ± .4 K/μl. The Lymphocytes [1, 8] was 3.01 ± .77 K/μl, the Marrow cell counts [1, 8] was 1.6 ± .2 × 10^6 × 10^6/femur and the Neutrophils [1, 8] was 0.48 ± .23 K/μl. For the same compound, the Platelets [1, 8] was 434 K/μl, the RBC [1, 8] was 7.66 ± .12 M/μl and the Spleen weight [1, 8] was 74 ± 2.4 mg. The Lymphocytes [1, 9] was 3.84 ± .38 K/μl, the Neutrophils [1, 9] was 1.20 ± .21 K/μl and the Platelets [1, 9] was 1706 K/μl. For the same compound, the RBC [1, 9] was 7.78 ± .22 M/μl, the Spleen weight [1, 9] was 104 ± 6 mg and the WBC [1, 9] was 5.1 ± .5 K/μl. The Lymphocytes [1, 10] was 4.07 ± .38 K/μl, the Neutrophils [1, 10] was 0.82 ± .19 K/μl and the Platelets [1, 10] was 2127 K/μl. The RBC [1, 10] was 7.33 ± .16 M/μl, the Spleen weight [1, 10] was 99 ± 6 mg and the WBC [1, 10] was 4.9 ± .4 K/μl. The Lymphocytes [1, 11] was 3.65 ± .27 K/μl, the Neutrophils [1, 11] was 0.84 ± .19 K/μl and the Platelets [1, 11] was 1940 K/μl. The RBC [1, 11] was 7.44 ± .14 M/μl, the Spleen weight [1, 11] was 103 ± 15 mg and the WBC [1, 11] was 4.6 ± .5 K/μl. For the same compound, the Spleen weights ([2]; day eleven after 5-FU, equimolar i.p. doses, in mg) was 121.6±9.7, the Spleen weight ([2]; day seven after 5-FU 150 mg/kg i.p., i.p. doses equimolar to uridine 300 mg/kg/treatment) was 80.4 ± 7.8 mg and the Platelet counts ([2]; day seven after 5-FU, equimolar i.p. doses) was 785.3±57.5 ×10^3 per microliter. For the same compound, the HCT % ([2]; equimolar i.p. doses) was 34.67 ± 0.9%, the Lym ([2]; equimolar i.p. doses) was 4.6 ± .4 K/μl and the Neut ([2]; equimolar i.p. doses) was “.60 ± K/μl”. For the same compound, the RBC ([2]; equimolar i.p. doses) was 7.32 ± .2 M/μl, the WBC ([2]; equimolar i.p. doses) was 5.20 ± .47 K/μl and the concentration at 15 min (in vivo) was 911 µM. It also gave a concentration at 30 min (in vivo) of 415 µM, a concentration at 1 h (in vivo) of 185 µM and a concentration at 2 h (in vivo) of 5.3 µM. For the same compound, the “Average Final Tumor Weight” value [3, 12] was 896 mg, the Mortality [3, 12] was 0/10 and the “Average Final Tumor Weight” value [3, 13] was 1,604 mg. For the same compound, the Mortality [3, 13] was 1/10, the Mortality [4, 14] was 5/10 and the “Average Final Tumor Weight” value ([4]; uridine 3,500 mg/kg i.p.) was 110 mg. For the same compound, the Mortality ([4]; uridine 3,500 mg/kg i.p. every 8 h x5) was 0/10.

In the case of `CC(=O)OC[C@H]1O[C@@H](n2ccc(=O)[nH]c2=O)[C@H](OC(C)=O)[C@@H]1OC(C)=O` [TAU, triacetyluridine], the WBC [1, 5] is reported as 5.9 ± .4 K/μl, the Lymphocytes [1, 8] is reported as 4.72 ± .36 K/μl and the Marrow cell counts [1, 8] is reported as 3.0 ± .5 × 10^6 × 10^6/femur. The Neutrophils [1, 8] was 1.20 K/μl, the Platelets [1, 8] was 723 K/μl and the RBC [1, 8] was 8.27 ± .16 M/μl. For the same compound, the Spleen weight [1, 8] was 78 ± 3.5 mg, the Lymphocytes [1, 11] was 3.29 ± .36 K/μl and the Neutrophils [1, 11] was 1.89 K/μl. It also gave a Platelets [1, 11] of 1446 K/μl, an RBC [1, 11] of 8.05 M/μl and a Spleen weight [1, 11] of 143 ± 11 mg. For the same compound, the WBC [1, 11] was 5.4 ± .5 K/μl, the bone marrow cellularity [2, 15] was 4.50±77 ×10^3 per microliter and the “increase of bone marrow cellularity over control values” [2, 15] was 40%. For the same compound, the HCT % ([2]; equimolar i.p. doses) was 35.01 ± 1.2%, the Lym ([2]; equimolar i.p. doses) was 5.6 ± .4 K/μl and the Neut ([2]; equimolar i.p. doses) was “.55 ± K/μl”. For the same compound, the RBC ([2]; equimolar i.p. doses) was 7.35 ± .2 M/μl, the WBC ([2]; equimolar i.p. doses) was 6.23 ± .55 K/μl and the “Average Final Tumor Weight” value [3, 12] was 1,013 mg. For the same compound, the Mortality [3, 12] was 1/10, the “Average Final Tumor Weight” value ([4]; oral TAU 6,066 mg/kg) was 162 mg and the Mortality [4, 14] was 1/10.
